In brackets after ≈: the same amount, converted by molar mass. Activity calls are given as the source filed them. The calls are words filed in the database; no cut-off is given here.

In data set [1] the test system is Staphylococcus aureus. Nature of the data set: Antibacterial activity against Staphylococcus aureus. The class given is functional.
A short description of data set [2]: (§1) Cytotoxicity against human A549 cells. The settings on record: A549 cells. The class given is toxicity, cell-based.
Data set [3] deals with Pseudomonas aeruginosa. Description: Antibacterial activity against Pseudomonas aeruginosa PAO1. The class given is functional.
Data set [4] deals with Escherichia coli. Nature of the data set: Antibacterial activity against Escherichia coli. The class given is functional.
The test system of data set [5] is Escherichia coli. Nature of the data set: Antibacterial activity against wild type Escherichia coli harbouring pore. The class given is functional.
In data set [6] the test system is Escherichia coli. Description: Antibacterial activity against […] Escherichia coli harbouring TolC-deficient mutant. The class given is functional.
For data set [7], the system named is Escherichia coli. Nature of the data set: Antibacterial activity against […] Escherichia coli harbouring TolC-deficient mutant with pore. The class given is functional.
Data set [8] concerns Pseudomonas aeruginosa. Nature of the data set: Antibacterial activity against Pseudomonas aeruginosa PAO1 harbouring pore. It counts as functional.
Data set [9] deals with Pseudomonas aeruginosa. Nature of the data set: Antibacterial activity against Pseudomonas aeruginosa PAO1 harbouring delta6 mutant. The class given is functional.
In data set [10] the test system is Pseudomonas aeruginosa. Description: Antibacterial activity against Pseudomonas aeruginosa PAO1 harbouring delta6 mutant with pore. It counts as functional.
Another data set relates to A549. Described as §1. The settings on record: a549. It counts as toxicity, cell-based.
Data set [11] deals with Escherichia coli. Description: Antibacterial activity against Escherichia coli BW25113. The class given is functional.
The test system of the next data set is Acinetobacter baumannii. Description: Antibacterial activity against Acinetobacter baumannii ATCC 17978. The class given is functional.
The test system of data set [12] is Staphylococcus aureus. Description: Antibacterial activity against Staphylococcus aureus ATCC 215. It counts as functional.
The test system of data set [13] is Staphylococcus aureus. Description: Antibacterial activity against Staphylococcus aureus ATCC 216. The class given is functional.
Data set [14] deals with Staphylococcus aureus. Nature of the data set: Antibacterial activity against Staphylococcus aureus ATCC 217. It counts as functional.
The subject of data set [15] is Staphylococcus aureus. Nature of the data set: Antibacterial activity against Staphylococcus aureus ATCC 219. It counts as functional.
Data set [16] deals with Staphylococcus aureus. Description: Antibacterial activity against Staphylococcus aureus ATCC 223. It counts as functional.
Data set [17] deals with Staphylococcus aureus. Nature of the data set: Antibacterial activity against Staphylococcus aureus ATCC 701. It counts as functional.
Data set [18] concerns Staphylococcus aureus. Description: Antibacterial activity against Staphylococcus aureus ATCC 711. It counts as functional.
For data set [19], the system named is Staphylococcus aureus. Nature of the data set: Antibacterial activity against Staphylococcus aureus ATCC 716. It counts as functional.
For data set [20], the system named is Staphylococcus aureus. Nature of the data set: Bacteriostatic activity against Staphylococcus aureus ATCC 25923 at MIC measured after 5 to 40 hrs by time kill assay. The class given is functional, organism-based. Conditions: time 5-40 hrs.
Data set [21] relates to Staphylococcus aureus. Nature of the data set: Bacteriostatic activity against Staphylococcus aureus ATCC 25923 at 4 times MIC measured after 5 to 40 hrs by time kill assay. The class given is functional, organism-based. Conditions: time 5-40 hrs.
Data set [22] deals with Staphylococcus aureus. Description: Bactericidal activity against Staphylococcus aureus ATCC 25923 at 16 times MIC measured after 9.5 to 40 hrs by time kill assay. Conditions: time 9.5-40 hrs. The class given is functional, organism-based.
Data set [23] has as its system Staphylococcus aureus. Description: Antibacterial activity against Staphylococcus aureus ATCC 25923. The class given is functional.
[24] abbreviates: Staphylococcus aureus, read-out: MIC.
Where [25] appears, read: Staphylococcus aureus, read-out: MIC80.

As for `Cc1cc(Cl)cc2sc(NC(=O)c3ccco3)nc12`, the MIC in the data set with Staphylococcus aureus [1] (setting [24]) is greater than 100 µM. In data set [2], the midpoint of cytotoxicity, the CC50, lay at 17.9 µM.
With `Cc1cc(Cl)cc2sc(N(CCCn3ccnc3)C(=O)C(C)C)nc12`, the MIC against Staphylococcus aureus [1] is 2.6 µM (≈ 0.98 µg/mL); with Staphylococcus aureus [1] (setting [24]) it was 3.9 µM (≈ 1.47 µg/mL); against Pseudomonas aeruginosa [3], greater than 200 µM; with Escherichia coli [4], greater than 100 µM; with Escherichia coli [5], greater than 100 µM; in the data set with Escherichia coli [6], 3.2 µM (≈ 1.21 µg/mL). Moreover, the MIC is 3.2 µM (≈ 1.21 µg/mL) against Escherichia coli [7], greater than 200 µM in the data set on Pseudomonas aeruginosa [8], 50 µM (≈ 18.8 µg/mL) with Pseudomonas aeruginosa [9] and 0.78 µM (≈ 0.294 µg/mL) against Pseudomonas aeruginosa [10]. Also, in data set [2], the CC50 amounted to 46.4 µM.
For the compound `Cc1cc(Cl)cc2sc(N(CCCn3ccnc3)C(=O)c3ccco3)nc12`, the figures for the CC50 (in [2]; in the data set with A549) were 34.1 µM and 12 µM, respectively. Further, the MIC is greater than 100 µM with Escherichia coli [11]; greater than 100 µM with Acinetobacter baumannii; greater than 100 µM against Pseudomonas aeruginosa [3]; 14.8 µM (≈ 5.93 µg/mL) in the data set on Staphylococcus aureus [12]; 4.4 µM (≈ 1.76 µg/mL) in the data set with Staphylococcus aureus [13]; 6.6 µM (≈ 2.65 µg/mL) in the data set on Staphylococcus aureus [14]. The minimal inhibitory concentration (MIC) is 2.9 µM (≈ 1.16 µg/mL) against Staphylococcus aureus [15]; 6.6 µM (≈ 2.65 µg/mL) against Staphylococcus aureus [16]; 4.4 µM (≈ 1.76 µg/mL) in the data set with Staphylococcus aureus [17]; 6.6 µM (≈ 2.65 µg/mL) in the data set on Staphylococcus aureus [18]; 4.4 µM (≈ 1.76 µg/mL) with Staphylococcus aureus [19]; greater than 200 µM against Pseudomonas aeruginosa [9]. Moreover, the minimal inhibitory concentration (MIC) in the data set with Pseudomonas aeruginosa [10] is 6.25 µM (≈ 2.51 µg/mL). In addition, the outcome with Staphylococcus aureus [20], in the data set with Staphylococcus aureus [21] and in the data set with Staphylococcus aureus [22] was Active.
Regarding `Cc1cc(Cl)cc2sc(N(CCCn3ccnc3)CS(=O)(=O)c3cccs3)nc12`, the MIC80 in the data set with Staphylococcus aureus [1] (setting [25]) amounted to 3.9 µM (≈ 1.82 µg/mL). This compound also came in with a CC50 in [2] of 26.3 µM.
Regarding `Cc1cc(Cl)cc2sc(N(CCCn3ccnc3)C(=O)c3ccccn3)nc12`, in the data set on Staphylococcus aureus [1] (setting [24]), the MIC was 7.4 µM (≈ 3.05 µg/mL). Further, in the data set on A549, half-maximal cytotoxicity (CC50) was put at 44.5 µM.
With `O=C(c1ccco1)N(CCCn1ccnc1)c1nc2ccc(Cl)nc2s1`, the MIC in the data set on Staphylococcus aureus [1] (setting [24]) is greater than 100 µM.
Take `Cc1nc(Cl)cc2sc(N(CCCn3ccnc3)C(=O)c3ccco3)nc12`: in the data set on Staphylococcus aureus [1] (setting [24]), the MIC was greater than 100 µM.
Turning to `O=C(c1ccco1)N(CCCn1ccnc1)c1nc2ccccc2s1`, the MIC in the data set on Staphylococcus aureus [1] (setting [24]) was 44.4 µM (≈ 15.6 µg/mL). In data set [2], this compound had a CC50 of 142 µM.
As for `CC[C@H]1OC(=O)[C@H](C)[C@@H](O[C@H]2C[C@@](C)(OC)[C@@H](O)[C@H](C)O2)[C@H](C)[C@@H](O[C@@H]2O[C@H](C)C[C@H](N(C)C)[C@H]2O)[C@](C)(O)C[C@@H](C)C(=O)[C@H](C)[C@@H](O)[C@]1(C)O` [ERYTHROMYCIN], the MIC in the data set on Pseudomonas aeruginosa [3] was found to be 128 µM (≈ 93.9 µg/mL); in the data set with Escherichia coli [4] it was 64 µM (≈ 47 µg/mL); in the data set on Escherichia coli [5] it was 4 µM (≈ 2.94 µg/mL); in the data set with Escherichia coli [6], 2 µM (≈ 1.47 µg/mL); in the data set on Pseudomonas aeruginosa [9], 8 µM (≈ 5.87 µg/mL); with Pseudomonas aeruginosa [10] it was 0.063 µM (≈ 0.0462 µg/mL).
For the compound `Cc1cccc2sc(N(CCCn3ccnc3)C(=O)c3ccco3)nc12`, the MIC in the data set with Staphylococcus aureus [1] (setting [24]) stood at 7.4 µM (≈ 2.71 µg/mL). For the same compound, in data set [2], half-maximal cytotoxicity (CC50) was put at 84.7 µM.
`Cc1cc(Cl)cc2sc(N(CCCn3ccnc3)CC3CC3)nc12`: the MIC80 in the data set with Staphylococcus aureus [1] (setting [25]) came to 5.9 µM (≈ 2.13 µg/mL). In addition, in data set [2], the CC50 is 65.6 µM.
As to `Cc1cc(Cl)cc2sc(N(CCCn3ccnc3)C(=O)CN)nc12`, in the data set on Staphylococcus aureus [1] (setting [24]), the MIC came to 100 µM (≈ 36.4 µg/mL).
In the case of `Cc1cc(Cl)cc2sc(N(CC3CCCNC3)C(=O)c3ccco3)nc12` (stereo not drawn), the MIC80 in the data set on Staphylococcus aureus [1] was found to be 19.8 µM (≈ 7.72 µg/mL); with Staphylococcus aureus [1] (setting [25]), 29.6 µM (≈ 11.5 µg/mL). Further, the MIC in the data set on Pseudomonas aeruginosa [3] was greater than 200 µM; with Escherichia coli [5] it was 100 µM (≈ 39 µg/mL); in the data set with Escherichia coli [6] it was 100 µM (≈ 39 µg/mL); against Escherichia coli [7], 50 µM (≈ 19.5 µg/mL); against Pseudomonas aeruginosa [8] it was greater than 200 µM; in the data set with Pseudomonas aeruginosa [9], greater than 200 µM. In the data set with Pseudomonas aeruginosa [10], it took 25 µM (≈ 9.75 µg/mL) to inhibit growth (MIC).
With `Cc1cc(Cl)cc2sc(N(CCCn3ccnc3)C(=O)c3ccc[nH]3)nc12`, the MIC was 1.7 µM (≈ 0.68 µg/mL) with Staphylococcus aureus [1] (setting [24]); greater than 100 µM with Pseudomonas aeruginosa [3]; greater than 200 µM with Escherichia coli [4]; greater than 200 µM in the data set with Escherichia coli [5]; 1.56 µM (≈ 0.624 µg/mL) against Escherichia coli [6]; 0.78 µM (≈ 0.312 µg/mL) against Escherichia coli [7]. The MIC in the data set with Pseudomonas aeruginosa [8] and against Pseudomonas aeruginosa [9] was greater than 100 µM each time. Also, the CC50 in the data set on A549 is greater than 100 µM.
As to `Cc1ccoc1C(=O)N(CCCn1ccnc1)c1nc2c(C)cc(Cl)cc2s1`, the MIC in the data set on Staphylococcus aureus [1] (setting [24]) is 2.6 µM (≈ 1.08 µg/mL); in the data set on Staphylococcus aureus [23], 2.6 µM (≈ 1.08 µg/mL); against Staphylococcus aureus [13], 14.8 µM (≈ 6.14 µg/mL); against Staphylococcus aureus [15], 22.2 µM (≈ 9.21 µg/mL); in the data set on Staphylococcus aureus [16], 9.9 µM (≈ 4.11 µg/mL); in the data set with Staphylococcus aureus [17] it was 14.8 µM (≈ 6.14 µg/mL). The MIC in the data set on Staphylococcus aureus [18] and with Staphylococcus aureus [19] was 14.8 µM (≈ 6.14 µg/mL) each time. In the data set on A549, this compound registered a CC50 of 90.2 µM.
As to `Cc1ccc(C(=O)N(CCCn2ccnc2)c2nc3c(C)cc(Cl)cc3s2)s1`, the MIC in the data set with Staphylococcus aureus [1] (setting [24]) was determined as 16.5 µM (≈ 7.11 µg/mL). In addition, it took 34.1 µM to reach half-maximal cytotoxicity in the data set with A549 (CC50).
Consider `Cc1cc(Cl)cc2sc(N(CCCn3ccnc3)C(=O)c3ccccc3)nc12`, for which, in the data set with Staphylococcus aureus [1] (setting [24]), the MIC turned out to be 4.9 µM (≈ 2.01 µg/mL). Also, the CC50 in the data set on A549 was determined as 37.2 µM.
For `Cc1cc(Cl)cc2sc(N(CCCn3ccnc3)C(=O)C3(C)CC3)nc12` the same measures were 3.3 µM (≈ 1.28 µg/mL) and 54.6 µM.

(Values after ChEMBL document CHEMBL5257105, “Identification and structure-activity relationships for a series of N, N-disubstituted 2-aminobenzothiazoles as potent inhibitors of S. aureus” (Bioorg Med Chem Lett, 2023).)
